Experimental data from PubChem BioAssay (NCI).
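Each compound was tested at five concentrations against cells in 96-well plates for 48 hours. TGI is the concentration that stops growth completely.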

Tests used:
Assay in all cases: growth of human tumour cells (NCI), 48 h
[1] = tested on: 786-0 renal
[2] = tested on: HCT-116 colon
[3] = tested on: HOP-92 NSCLC
[4] = tested on: HT29 colon
[5] = tested on: KM12 colon
[6] = tested on: OVCAR-5 ovarian
[7] = tested on: RXF 393 renal
[8] = tested on: SK-MEL-2 melanoma
[9] = tested on: TK-10 renal
[10] = tested on: MDA-N
[11] = tested on: SR leukemia

SMILES | TGI [1] [µM] | TGI [2] [µM] | TGI [3] [µM] | TGI [4] [µM] | TGI [5] [µM] | TGI [6] [µM] | TGI [7] [µM] | TGI [8] [µM] | TGI [9] [µM] | TGI [10] [µM] | TGI [11] [µM]
N#CI1OC(C(F)(F)F)(C(F)(F)F)c2ccccc21 | 27.2 | 30.4 | 42.5 | 40.8 | 35.5 | 36.6 | 32.4 | 30.5 | 39.1 | – | –
COC1=C(OC)C(=O)C(Cc2c(Cl)nc3n2CCS3)=C(C)C1=O | 37.9 | 25.3 | – | 35.6 | 30.8 | 36 | 36.4 | 32.2 | 32 | 26.8 | 25.9
C=C(COC(=O)C(C)C)[C@H]1Oc2ccc(C(C)=O)cc2[C@@H]1OC(=O)C(C)C | > 100 | > 100 | – | > 100 | > 100 | > 100 | > 100 | > 100 | > 100 | > 100 | > 100
Cc1ccc(Nc2ccc(Nc3ccc(C)cc3S(=O)(=O)O)c3c2C(=O)c2ccccc2C3=O)c(S(=O)(=O)O)c1 | > 100 | > 100 | – | – | > 100 | – | > 100 | > 100 | > 100 | – | > 100
COc1cc(C2C3=C(N=C4SC(C(C)=O)=C(C)N42)c2ccccc2CC3)cc(OC)c1OC (configuration not stated) | > 100 | > 100 | > 100 | > 100 | > 100 | > 100 | > 100 | > 100 | – | > 100 | –
CCCN(CCC)c1c([N+](=O)[O-])cc(C(=O)N(C)C)cc1[N+](=O)[O-] | > 100 | > 100 | – | > 100 | > 100 | > 100 | – | > 100 | > 100 | – | –
COc1cnnc2c(C)c(-c3ccccc3)nn12 | > 100 | > 100 | > 100 | > 100 | > 100 | > 100 | > 100 | > 100 | > 100 | > 100 | –
O=C1CC(Cl)c2c(Cl)sc(Cl)c21 (configuration not stated) | 2.82 | 3.12 | 3.44 | 5.93 | 4.03 | 34.7 | – | > 25.5 | 4.51 | 5.94 | –
COC(=O)c1ccccc1N=Cc1ccc(N(CCC#N)S(=O)(=O)c2ccccc2)cc1 | > 100 | > 100 | > 100 | > 100 | > 100 | > 100 | > 100 | > 100 | > 100 | – | > 100
Oc1ccccc1C=Nc1ccccc1N=Cc1ccccc1O | > 100 | > 100 | – | > 100 | > 100 | – | – | – | > 100 | – | > 100
CC1(CO)C(=O)OC12CCCCC2 (configuration not stated) | > 100 | > 100 | > 100 | > 100 | > 100 | – | – | > 100 | > 100 | – | > 100
COC(=O)C(N)CCCC(N)C(=O)NC(C)C(=O)NC(CCC(=O)NCCCNc1ccc([N+](=O)[O-])c2[nH]c3ccccc3c(=O)c12)C(N)=O (configuration not stated) | 16.6 | 12.4 | 26.1 | – | 19.1 | 22.7 | 25.1 | 46.2 | 23.2 | – | –
Cc1cnc2[nH]c(-c3cccc(Cl)c3)cc(=O)c2c1 | > 100 | – | > 100 | – | > 100 | > 100 | 85.5 | 97.4 | > 100 | – | > 100
CC(C)=CCC/C(C)=C/CC/C(C)=C/CSc1ccc(Cl)cc1C(=O)O | 30.8 | 31.6 | 45.2 | 37.4 | 32.3 | 36.9 | 44.6 | 28.8 | 37.6 | 60.3 | –
c1ccc2nn(C3CCCCO3)nc2c1 (configuration not stated) | > 100 | > 100 | – | > 100 | > 100 | > 100 | > 100 | > 100 | > 100 | > 100 | > 100
OC1(c2ccc(Cl)cc2)c2ccccc2C2=NCc3ccccc3CN21 (configuration not stated) | 19.4 | 19.2 | 41.4 | 27.8 | 11.6 | 26 | – | 16.9 | 28.9 | 26.5 | > 56.3
Cc1nn(-c2ccccc2)c2c1N=C(C(=O)O)CC(c1ccccc1)=N2 | > 10 | > 10 | > 10 | > 10 | > 10 | – | – | – | > 10 | > 10 | > 10
CC12CCC(C1)C(C)(C)C2OC(=O)c1ccccc1C(=O)O (configuration not stated) | > 100 | > 100 | > 100 | > 100 | > 100 | > 100 | > 100 | > 100 | > 100 | > 100 | –
O=Cc1cc(O)c(O)c(/C=N/n2c3ccccc3c3ccccc32)c1 | 20.7 | 31.2 | 9.23 | 48.1 | 84.3 | 49 | 23.5 | – | 82 | – | 21.4
CC1CN=C(N(C)C(=O)Nc2ccc(Cl)c(Cl)c2)S1 (configuration not stated) | > 100 | > 100 | 22.9 | > 100 | > 100 | 89.9 | – | 44.2 | 92.5 | > 100 | > 100
O=C1C(CN2CCCC2)CCCC1CN1CCCC1 (configuration not stated) | 2.42 | 3.28 | – | 33.6 | 39.8 | 13.2 | 8.08 | 37.4 | 5.5 | 19.2 | 5.66
CCOC(=O)CN(Cc1ccccc1)Cc1c(C(=O)c2ccccc2)c2ccccc2n1C(=O)c1ccccc1 | > 100 | > 100 | > 100 | > 100 | > 100 | > 100 | – | > 100 | > 100 | – | > 100
O=C(CCC(=O)OCC1OC(O)(CC2OC(CO)C(O)C(O)C2O)C(O)C1O)OCc1ccccc1 (configuration not stated) | > 100 | > 100 | > 100 | > 100 | > 100 | > 100 | > 100 | > 100 | > 100 | > 100 | –
